Experimental data reported in patent US20210244791A1, “APPLICATION OF PEDF-DERIVED SHORT PEPTIDES IN TENDON HEALING” (BRIM Biotechnology, Inc., priority 2018, published 2021).

Assays:
[1] = tested on: Primary rabbit TSPC; assay: TSPC cell proliferation assay (fluorometric kit); assay type: cell-based; settings: 10 μM peptide, low serum media, PDSP solvent (DMSO) set as 100%, mean±SE of three experiments
Protocol: Primary rabbit TSPC were cultured to near-confluence in a 75T cell culture flask and then verified by immunostaining of a TSPC marker, nucleostemin (>98%; green color). Nuclei were stained with Hoechst 33258 (blue color) and visualized by an epifluorescence microscopy. The nucleostemine-positive TSPC were treated with 10 μM 29-mer or its variants for 24 h. The numbers of TSPC after 24-h expansion were detected with a cell proliferation assay kit (BioVision; catalog number: K307). The TSPC treated with PDSP solvent was set as 100%. Results are expressed as mean±SE of three independent experiments.
Achilles tendons from New Zealand White rabbits (6-8 months old, 3.0-4.0 kg) were used in this study. Achilles tendons were washed two times with sterile phosphate-buffered saline (PBS) containing 50 μg/ml gentamicin. The tendon and tendon sheath were cut into small pieces (1-2 mm^3). Each 100 mg of fragment was then digested in a solution containing 3 mg/ml of type I collagenase and 4 mg/ml of dispase in 1 ml balance salt solution (BSS; Alcone) at 37° C. for 4 hours. The digested tissues were washed three times with PBS and collected by centrifugation (800 g for 10 min). The digested tissues were placed in tissue-culture plates (Falcon Labware; NJ, USA) and resuspended in high-glucose DMEM supplemented with 10% FBS and 50 μg/ml gentamycin, and maintained at 37° C. with 5% CO2. After 5 days, the medium was changed to remove the loosened tissue residues. Subsequently, tendon cells were incubated with 10% FBS medium for 2 days, and then cultured with a basal medium (2% FBS, 1% ITSE, 300 μg/ml L-glutamine, 1% antibiotic-antimicotic solutions) for further 10 days. Culture medium was changed every 3 days. For passage, tendon cells were harvested with 0.25% trypsin/EDTA, cell counting by haemocytometer, approximately 5×10^3 cells were seeded in each well of a 96-well cell culture plate or 2×10^5 cells were seeded in each well of a 6-well cell culture plate for 24 h. These expanded tendon cells were then treated with 10 μM 29-mer or its variants in fresh basal medium for further 24 h and subjected to cell proliferation assay and western blot analysis, respectively.
Cell Proliferation Assay Kit (Fluorometric) was purchased from BioVision (Catalog #: K307) and used to evaluate cell proliferation according to the manufacturer's recommendations. The fluorescence was read at 480 nm for excitation and 538 nm for emission on a SPECTRAmax GEMINI XS fluorescence microplate spectrophotometer (Molecular Devices, Sunnyvale, Calif., USA).
Rabbit TSPC isolation was described above. TSPC in low serum media were treated with 10 μM of one of the 29-mer variants for 24 h. Cell proliferation was examined by a cell proliferation kit based on a kit provided nuclear dye that specifically binds to nucleic acid in the cell and generates green fluorescence.

[2] = tested on: CD146-positive TSPC; assay: CD146 immunostaining of TSPC in injured Achilles tendon; assay type: in vivo, rat; settings: 1 week after wounding; peptide/alginate gel; vehicle/alginate 38.3±7.8
Protocol: (A) Representative CD146-stained longitudinal sections. (Original magnification×200). (B) The number of CD146-positive TSPC per 200×field of view on injured tendon sections. Data are reported as mean±SE. Total CD146^+ cells were evaluated from 6 sections/tendon specimen, with 3 rats in each group. *P<0.001 versus vehicle/alginate-treated tendon; #p <0.001 versus 29-mer/alginate-treated tendon.
To investigate the effects of the 29-mer peptide on tendon healing, a rat model of Achilles tendon injury was established as reported by Orhan et al. (The effect of extracorporeal shock waves on a rat model of injury to tendon Achilles. A histological and biomechanical study. J. Bone Joint Surg. Br. 2004;.86(4):.613-618). Adult 10-week-old male Sprague-Dawley rats (initial body weight=312±11 g) were anesthetized by an intraperitoneal injection of xylazine (10 mg/kg). Then, the left tendo Achilles injury was created by full-thickness insertion of an 18-G needle through tendo Achilles 1 cm proximal to the calcaneum attachment site. This created a horizontal wound that was flanked by intact tendon tissue to prevent the retraction of severed ends. […]
CD146 is one of the TSPC markers. […] To test the mechanism of the 29-mer-induced tendon repair, CD146 immunostaining of TSPC located at injured tendon was measured, at 1 week after wounding. […]

## SLGAEQRTESIIHRALYYDLISSPDIHGT (listed as Homo sapiens) [29-mer, PEDF-derived short peptide, human PEDF residues 93-121]
[1]
  TSPC proliferation (numbers of TSPC after 24-h expansion): 135±6.1%
[2]
  number of CD146-positive TSPC on injured tendon sections: 86.8±6.0 cells per 200× field
